{
  "source": "patent US20220296623A1",
  "about": "“REDUCED NICOTINAMIDERIBOSIDES FOR TREATING OR PREVENTING KIDNEY DISEASE” (SOCIETE DES PRODUITS NESTLE S.A., priority 2019, published 2022)",
  "key": {"[1]": {"assay": "Stability of NRH or NR spiked in isolated mouse plasma", "format": "in vitro ADME", "settings": "2 h of incubation", "text": "(§1) Levels of NRH and other NAD-related metabolites in biological samples were obtained by using a cold liquid-liquid extraction using a mixture of methanol:water:chloroform in 5:3:5 (v/v), from which the polar phase was recovered for hydrophilic interaction ultra-high performance liquid chromatography mass spectrometry (UHPLC-MS) analysis. The UHPLC consisted of a binary pump, a cooled autosampler, and a column oven (DIONEX Ultimate 3000 UHPLC+ Focused, Thermo Scientific), connected to a triple quadrupole spectrometer (TSQ Vantage, Thermo Scientific) equipped with a heated electrospray ionisation (H-ESI) source. Of each sample, 2 μL were injected into the analytical column (2.1 mm×150 mm, 5 μm pore size, 200 Å HILICON iHILIC®-Fusion(P)), guarded by a pre-column (2.1 mm×20 mm, 200 Å HILICON iHILIC®-Fusion(P) Guard Kit) operating at 35° C. The mobile phase (10 mM ammonium acetate at pH 9, A, and acetonitrile, B) was pumped at 0.25 mL/min flow rate over a linear gradient of decreasing organic solvent (0.5-16 min, 90-25% B), followed by re-equilibration for a total run time of 30 min. The MS operated in positive mode at 3500 V with multiple reaction monitoring (MRM). The software Xcalibur v4.1.31.9 (Thermo Scientific) was used for instrument control, data acquisition and processing. Retention time and mass detection was confirmed by authentic standards.\n(§2) NR degradation to NAM has been proposed as a limitation for its pharmacological efficacy. To evaluate whether NRH was also susceptible to degradation to NAM, we spiked NRH or NR in isolated mouse plasma. […] We also tested the stability of NRH in other matrixes."}, "[2]": {"assay": "Stability in FBS supplemented media", "format": "in vitro ADME", "text": "as §2"}, "[3]": {"test_system": "NAD+ levels in liver, muscle and kidney", "assay": "Tissue NAD+ levels after intraperitoneal injection of NR or NRH", "format": "in vivo, mice", "settings": "IP 500 mg/kg, after 1 h", "protocol": "(§3) The above results prompted us to test whether NRH could act as an effective NAD+ precursor in vivo. For this, we first intraperitoneally (IP) injected mice with either NR or NRH (500 mg/kg)."}, "[4]": {"assay": "Circulating NAM, NRH and NR after intraperitoneal injection", "format": "in vivo, mice", "settings": "IP 500 mg/kg", "text": "as §1, §3"}, "[5]": {"design": "species or system mice", "settings": "mouse, in vivo, po", "text": "as §1\nOral administration of NRH led to very similar results to those observed after IP administration. […] In contrast, NR levels were undetectable at 1 h after NR administration. As expected, NR treatment led to large increases in circulating NAM, which where ˜4-fold higher than those observed after NRH treatment."}, "NRK1": {"test_system": "NRK1", "assay": "NAD+ levels in primary hepatocytes from control or NRK1 knockout mice", "settings": "1 hour of treatment"}},
  "note": "Structures can show the parent of a compound that is named as a salt.",
  "data": [
    {"molecule": "NC(=O)c1ccc[n+]([C@@H]2O[C@H](CO)[C@@H](O)[C@H]2O)c1", "note": "[NR, 1-b-D-ribofuranosyl-3-pyridinecarboxamide salt, reference compound]", "values": [
      {"measurement": "compound levels in isolated mouse plasma", "setting": "[1]", "value": "decayed in plasma"},
      {"measurement": "generation of NAM in isolated mouse plasma", "setting": "[1]", "value": "increase in NAM"},
      {"measurement": "degradation to NAM in FBS supplemented media", "setting": "[2]", "value": "as occurs with NR"},
      {"measurement": "NAD+ levels in kidney", "setting": "[3]", "value": "increased NAD+ levels"},
      {"measurement": "NAD+ levels in liver", "setting": "[3]", "value": "increased NAD+ levels"},
      {"measurement": "NAD+ levels in muscle", "setting": "[3]", "value": "increased NAD+ levels"},
      {"measurement": "NAM levels in circulation", "setting": "[4]", "value": "highly increased in circulation"},
      {"measurement": "circulating NAM after NR treatment relative to NRH treatment", "setting": "[5]; C57BI/6NTac, 1 h", "value": "~4", "unit": "fold"},
      {"measurement": "administered compound in plasma", "setting": "[5]", "value": "undetectable"},
      {"measurement": "NAD+ levels in NRK1KO derived primary hepatocytes", "setting": "NRK1", "value": "failed to increase NAD+ levels"}
    ]}
  ]
}
